From patent publication US5962275A, “Method for the enzymatic galactosylation of monosaccharides and oligosaccharides” (Hoechst Aktiengesellschaft, priority 1995, dated 1999) come the findings set out here.

Holding throughout (type): biochemical
For assay [1], the target named is T1, UDP-glucose 4'-epimerase (Saccharomyces cerevisiae, UniProt P04397). The assay is described as follows: Stability (rel. activity) of the epimerase in the presence of various donors and acceptors of GalT. Particulars: for inactivation of the epimerase (in words): donors and acceptors of GalT, acceptors in the presence of UMP. Here is the method: 893 μl of 100 mM glycine buffer, pH 8.8
T1 sequence (P04397 whole entry): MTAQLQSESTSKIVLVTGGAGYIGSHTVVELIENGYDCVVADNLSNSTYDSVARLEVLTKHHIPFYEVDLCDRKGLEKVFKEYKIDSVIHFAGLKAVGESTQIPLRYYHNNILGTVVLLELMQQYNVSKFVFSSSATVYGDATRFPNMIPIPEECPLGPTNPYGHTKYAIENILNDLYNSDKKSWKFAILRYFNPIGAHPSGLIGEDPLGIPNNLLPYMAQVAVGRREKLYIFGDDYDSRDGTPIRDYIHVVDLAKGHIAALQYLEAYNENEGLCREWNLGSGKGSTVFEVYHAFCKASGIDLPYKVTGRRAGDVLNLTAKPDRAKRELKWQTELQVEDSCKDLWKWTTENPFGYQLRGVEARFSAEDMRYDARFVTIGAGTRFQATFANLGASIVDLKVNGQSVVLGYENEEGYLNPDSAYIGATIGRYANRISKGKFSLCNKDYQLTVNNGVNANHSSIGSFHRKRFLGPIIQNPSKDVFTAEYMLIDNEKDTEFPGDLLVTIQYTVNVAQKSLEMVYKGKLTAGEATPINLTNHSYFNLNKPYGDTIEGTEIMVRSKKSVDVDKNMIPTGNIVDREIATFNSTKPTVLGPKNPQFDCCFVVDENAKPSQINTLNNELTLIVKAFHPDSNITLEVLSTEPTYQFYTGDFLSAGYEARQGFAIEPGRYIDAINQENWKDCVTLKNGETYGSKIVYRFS
In order to examine the thesis that the inactivation of the epimerase can occur in association with many applications, the stability of the epimerase was tested in the presence of various donors and acceptors of GalT.
P: 200 mM HepesNaOH, pH 7.2, 1 mM DTT, 1 mg/ml BSA, 25 mM KCl containing
R: Activity following reactivation of the epimerase with
dTDP6-deoxy-D-xylo-4-hexulose (c = 0.1 mM)

Assay [2] has as its target T1, UDP-glucose 4'-epimerase. The assay is described as follows: Reactivation of the inactivated epimerase with activator. Particulars: for time after which renewed inactivation of the epimerase is observed: activator 0.1 mM, galactose and UMP still present in the mixture. Here is the method:
Both dUDP-6-deoxy-D-xylo-4-hexulose and dTDP-6-deoxy-D-xylo-4-hexulose, and also 6-deoxyglucosone, galactosone, allosone and glucosone, were used for reactivating the epimerase.
2. Inactivation of the epimerase
1 mg/ml bovine serum albumin (BSA)
3. Activation of the epimerase
160 μl of inactivated epimerase
40 μl of activator (different concentrations)

In assay [3] the target is T1, UDP-glucose 4'-epimerase. The assay is described as follows: Inactivation of the epimerase by sugar in the presence of UMP. Particulars: 500 mM sucrose, 0.1 mM UMP, Hepes pH 7.2, 30° C., 8 hours. Here is the method:
A: 200 mM Hepes pH 7.2, 1 mM DTT, 1 mg/ml BSA B: 200 mM Hepes pH 7.2, 1 mM DTT, 1 mg/ml BSA, 500 mM sucrose A. Buffer solution A B. Buffer solution A, 0.1 mM UMP C. Buffer solution B D. […] Incubation temperature: 30° C. Activity test: (Fukusawa et al., J. Biol. Chem. 255, 2705-2707 (1980)) | 893 μl of 100 mM glycine buffer, pH 8.8 | 20 μl of 5 mM UDP-Gal | 20 μl of 50 mM NAD […] |33.3 μl of epimerase Temperature: 25° C. Measurement at 340 nm

Where [4] appears, read: 2 h, acceptor 50 mM, buffer P pH 7.2 containing 0.1 mM UMP, read-out: Rel. activity of the epimerase, incubation time 2h.
[5] abbreviates: acceptor 50 mM, buffer P pH 7.2 containing 0.1 mM UMP.
Setting [6] is: 2 h, pH 7.2, read-out: Rel. activity of the epimerase, incubation time 2h.
Setting [7] is: inactivated epimerase plus activator, different concentrations.

Entries after “also recorded” stand apart in the source; their conditions may differ. Where two headings read alike, the source gives them in different places.

Consider `OC[C@H]1SC(O)[C@H](O)[C@@H](O)[C@@H]1O` (stereo partly drawn) [Thioglc, 5-thio-D-glucose], for which the activity at 50000 µM at UDP-glucose 4'-epimerase [1] (setting [4]) stood at 87.9%. At UDP-glucose 4'-epimerase [1] (setting [5]), the “Rel. activity of the epimerase, incubation time 7h” value (from here on “Rel. activity of the epimerase”) came to 34.3. For the same compound, at UDP-glucose 4'-epimerase [1], the “inactivation of the epimerase (in words)” value is listed as “inactivated”.

For the compound `CCCCCCCCOC1O[C@H](CO)[C@@H](O)[C@H](O)[C@H]1O` (stereo partly shown) [n-Octylglucopyranoside, n-octylglucopyranoside], the activity at 50000 µM on UDP-glucose 4'-epimerase [1] (setting [4]) was 86.1%; at UDP-glucose 4'-epimerase [1] (8 h, acceptor 50 mM, buffer P pH 7.2 containing 0.1 mM UMP, read-out: Rel. activity of the epimerase, incubation time 8h), 29.3%. At UDP-glucose 4'-epimerase [1] (setting [5]), the “Rel. activity of the epimerase” value amounted to 75.6. The “inactivation of the epimerase (in words)” value on UDP-glucose 4'-epimerase [1] is listed as “inactivated”.

For `OC[C@H]1OC(O)[C@H](O)[C@@H](O)[C@@H]1O` (stereo partly shown) [Glc, glucose], the activity at 50000 µM at UDP-glucose 4'-epimerase [1] (setting [6]) was 15.8%. Moreover, the “inactivation of the epimerase (in words)” value at UDP-glucose 4'-epimerase [1] is “inactivated”.

`Cc1cn([C@H]2C[C@H](O)[C@@H](COP(=O)(O)OP(=O)(O)O[C@H]3O[C@H](C)C(=O)[C@H](O)[C@H]3O)O2)c(=O)[nH]c1=O` [dTDP-6-deoxy-D-xylo-4-hexulose]: at UDP-glucose 4'-epimerase [2], the “reactivation of the epimerase (in words)” value was “can be used to reactivate” and the “time after which renewed inactivation of the epimerase is observed” value was 32 h. Further, the “activation of the epimerase (in words)” value on UDP-glucose 4'-epimerase [2] (setting [7]) is “rapid and long-lasting activation”.

As for `CC(=O)N[C@H]1C(O)O[C@H](CO)[C@@H](O)[C@@H]1O` (stereo partly shown) [GlcNAc, N-acetylglucosamine], the activity at 50000 µM at UDP-glucose 4'-epimerase [1] (setting [4]) is 93.6%. For the same compound, on UDP-glucose 4'-epimerase [1] (setting [5]), the “Rel. activity of the epimerase” value stood at 97.5.

`C[C@H]1O[C@H](OP(=O)(O)OP(=O)(O)OC[C@H]2O[C@@H](n3ccc(=O)[nH]c3=O)C[C@@H]2O)[C@H](O)[C@@H](O)C1=O` [dUDP-6-deoxy-D-xylo-4-hexulose]: on UDP-glucose 4'-epimerase [2], the “reactivation of the epimerase (in words)” value is “can be used to reactivate; also recorded: successfully employed to reactivate the epimerase” and the “time after which renewed inactivation of the epimerase is observed” value was 32 h. For the same compound, the “activation of the epimerase (in words)” value at UDP-glucose 4'-epimerase [2] (1 mM activator, activity monitored over […]) is “rapid activation of the epimerase, with the activation being stable over the period of observation”. Besides, the “activation of the epimerase (in words)” value on UDP-glucose 4'-epimerase [2] (setting [7]) was “rapid and long-lasting activation”.

On to `OC[C@H]1OC(O)C[C@@H](O)[C@@H]1O` (stereo partly drawn) [2-Deoxyglc, 2-deoxy-D-glucose], for which, on UDP-glucose 4'-epimerase [1] (setting [6]), the activity at 50000 µM stood at 20.7%. The “inactivation of the epimerase (in words)” value on UDP-glucose 4'-epimerase [1] is listed as “inactivated”.

`OC[C@H]1O[C@@](CO)(O[C@H]2O[C@H](CO)[C@@H](O)[C@H](O)[C@H]2O)[C@@H](O)[C@@H]1O` [sucrose]: the “inactivation of the epimerase (in words)” value on UDP-glucose 4'-epimerase [3] is recorded as “inactivated”.

Regarding `OC[C@H]1OC(O)[C@H](O)[C@@H](O)[C@H]1O` (stereo partly shown) [galactose], the “measured activity of the epimerase after inactivation” value at UDP-glucose 4'-epimerase [2] (50 mM galactose, 0.1 mM UMP, 0.25 mg/ml epimerase, 2 h at 30° C.) is given as 3%.
